Laboratory results: publication PMC3371641 (SAR and QSAR in Environmental Research, 2011)

These compounds were tested against T1, cytochrome P450 enzyme 1A2 (CYP1A2) (Homo sapiens, UniProt P05177) (assay: enzyme inhibition assay, method reported earlier). Settings: not given.
T1 sequence (P05177 2-516): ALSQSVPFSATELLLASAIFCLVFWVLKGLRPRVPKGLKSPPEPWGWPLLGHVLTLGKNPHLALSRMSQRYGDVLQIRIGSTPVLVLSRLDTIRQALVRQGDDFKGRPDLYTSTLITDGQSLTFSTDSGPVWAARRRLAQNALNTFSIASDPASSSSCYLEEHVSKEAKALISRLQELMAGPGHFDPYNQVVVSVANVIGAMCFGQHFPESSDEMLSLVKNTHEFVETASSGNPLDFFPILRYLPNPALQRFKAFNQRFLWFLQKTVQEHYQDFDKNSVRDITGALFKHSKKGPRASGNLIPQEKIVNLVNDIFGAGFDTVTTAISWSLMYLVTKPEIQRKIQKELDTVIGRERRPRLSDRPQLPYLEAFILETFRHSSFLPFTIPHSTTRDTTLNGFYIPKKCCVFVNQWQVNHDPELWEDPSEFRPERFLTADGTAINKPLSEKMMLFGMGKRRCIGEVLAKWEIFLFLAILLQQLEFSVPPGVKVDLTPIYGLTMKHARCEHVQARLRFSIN
Type: biochemical
With `CC#Cc1ccc2c(ccc3ccccc32)c1` [2MEPHEN, 2-(1-propynyl)phenanthrene] the IC50 was 600 nM.
Work on `C#CCOc1cccc2oc(-c3ccccc3)cc(=O)c12` [5FPE, 5-flavonepropargyl ether] yielded an IC50 of 380 nM.
Compound `C#CCOc1ccc2c(c1)OC(c1ccccc1)CC2=O` (stereo not drawn) [7FLAVANONEPE, 7FlavanonePE] has an IC50 of 970 nM.
`C#CCOc1ccc2c(C)cc(=O)oc2c1` [4M7CPE, 4-methyl-7-coumarinpropargyl ether] showed an IC50 of 2010 nM.
In the case of `C#CCOc1ccc2c(C(F)(F)F)cc(=O)oc2c1` [4TFM7CPE, 4-(trifluoromethyl)-7-coumarinpropargyl ether], the IC50 is reported as 700 nM.
`C#CCOc1ccc2c(=O)cc(-c3ccccc3)oc2c1` [7FPE, 7-flavonepropargyl ether] showed an IC50 of 390 nM.
`C#CCOc1ccc2oc(-c3ccccc3)cc(=O)c2c1` [6FPE, 6-flavonepropargyl ether] was tested, and the IC50 was 940 nM.
Compound `C#CCOc1ccc(-c2ccccc2)cc1` [4BIPHPE, 4-biphenylpropargyl ether] has an IC50 of 1550 nM.
Work on `C#CCOc1ccc(-c2cc(=O)c3ccc4ccccc4c3o2)cc1` [4′αNFPE, α-naphthoflavone-4′-propargyl ether] yielded an IC50 of 260 nM.
`C#CCOc1ccc(-c2cc(=O)c3ccccc3o2)cc1` [4′FPE, 4′-flavonepropargyl ether] gave an IC50 of 1270 nM.
Work on `CCC#Cc1ccc2ccc3cccc4ccc1c2c34` [1EEP, 1-butynylpyrene] yielded an IC50 of 430 nM.

Same assay, conditions: read-out: EI
`C#CCOCc1ccc(-c2ccccc2)cc1` [4BIPHMPE, 4-biphenyl methyl propargyl ether] was tested, and the IC50 was 1840 nM.
